Measurements: PubChem BioAssay (NCI)
Where “and” joins values, the source holds several entries; their conditions need not be identical. Equal entries are not always repeated.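 Following 48 hours of exposure in 96-well plates, responses at five concentrations were used to interpolate endpoints linearly. Abbreviation: GI50, concentration required for 50% inhibition of growth. TGI: total growth inhibition.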

What was measured:
Assay in all cases: NCI tumour cell line growth inhibition, 48 h
KM12 colon = system: KM12 colon
MDA-MB-435 = system: MDA-MB-435
SN12C renal = system: SN12C renal
SNB-75 CNS = system: SNB-75 CNS
SK-MEL-2 melanoma = system: SK-MEL-2 melanoma
HL-60(TB) leukemia = system: HL-60(TB) leukemia
UO-31 renal = system: UO-31 renal

Cn1cc(-c2nc(-c3c[nH]c4ncccc34)cs2)c2ccccc21
GI50 (KM12 colon): 0.975 µM | TGI (KM12 colon): 26.7 µM | GI50 (MDA-MB-435): 3.84 µM | TGI (MDA-MB-435): 30 µM | GI50 (SN12C renal): > 100 µM | TGI (SN12C renal): > 100 µM | GI50 (SNB-75 CNS): 18.5 µM | TGI (SNB-75 CNS): > 100 µM | GI50 (SK-MEL-2 melanoma): 54.7 µM | TGI (SK-MEL-2 melanoma): > 100 µM | GI50 (HL-60(TB) leukemia): 10.7 µM | TGI (HL-60(TB) leukemia): > 100 µM | GI50 (UO-31 renal): > 100 µM | TGI (UO-31 renal): > 100 µM

O=Nc1c(-c2c(O)[nH]c3cc(Br)ccc23)[nH]c2ccccc12
GI50 (KM12 colon): 0.471 µM | TGI (KM12 colon): 1.94 µM | GI50 (MDA-MB-435): 1.61 µM | TGI (MDA-MB-435): 3.01 µM | GI50 (SN12C renal): 0.785 µM | TGI (SN12C renal): 3.86 µM | GI50 (SNB-75 CNS): 0.285 µM | TGI (SNB-75 CNS): 2.96 µM | GI50 (SK-MEL-2 melanoma): 1.11 µM | TGI (SK-MEL-2 melanoma): 3.41 µM | GI50 (HL-60(TB) leukemia): 2.75 µM | TGI (HL-60(TB) leukemia): > 32.3 µM | GI50 (UO-31 renal): 0.334 µM | TGI (UO-31 renal): 2.03 µM

COc1cc(/C=C/c2cc(/C=C/c3ccc(O)c(OC)c3)n(C(=O)Nc3ccccc3Cl)n2)ccc1O
GI50 (KM12 colon): 0.326 µM | TGI (KM12 colon): 1.5 µM | GI50 (MDA-MB-435): 0.0738 µM | TGI (MDA-MB-435): 0.236 µM | GI50 (SN12C renal): 0.366 µM | TGI (SN12C renal): 5.77 µM | GI50 (SNB-75 CNS): 0.259 µM | TGI (SNB-75 CNS): 0.959 µM | GI50 (SK-MEL-2 melanoma): 0.397 µM | TGI (SK-MEL-2 melanoma): 1.6 µM | GI50 (HL-60(TB) leukemia): 0.282 µM | TGI (HL-60(TB) leukemia): 0.721 µM | GI50 (UO-31 renal): 0.159 µM | TGI (UO-31 renal): 1.17 µM

O=c1cnnc(N/N=C/c2ccccc2O)[nH]1
GI50 (KM12 colon): 2.85 µM | TGI (KM12 colon): > 100 µM | GI50 (MDA-MB-435): 3.54 µM | TGI (MDA-MB-435): > 100 µM | GI50 (SN12C renal): 4.21 µM | TGI (SN12C renal): > 100 µM | GI50 (SNB-75 CNS): 8.03 µM | TGI (SNB-75 CNS): 87.3 µM | GI50 (SK-MEL-2 melanoma): 21 µM | TGI (SK-MEL-2 melanoma): > 100 µM | GI50 (HL-60(TB) leukemia): 2.91 µM | TGI (HL-60(TB) leukemia): 21.8 µM | GI50 (UO-31 renal): 1.61 µM | TGI (UO-31 renal): 13.5 µM

CC(C)(C)c1cc(NC(=O)Nc2ccc(-c3cn4c(n3)sc3cc(OCCN5CCOCC5)ccc34)cc2)no1
GI50 (KM12 colon): 0.532 µM and 0.496 µM and 0.438 µM | TGI (KM12 colon): 27.3 µM and 14.6 µM and > 10 µM | GI50 (MDA-MB-435): 6.85 µM and 4.32 µM and 7.3 µM | TGI (MDA-MB-435): 27.7 µM and 21.2 µM and > 10 µM | TGI (SN12C renal): 24.9 µM and 13.2 µM and > 10 µM | GI50 (SNB-75 CNS): 1.41 µM and 2.38 µM and 1.94 µM | TGI (SNB-75 CNS): 6.52 µM and 19.1 µM and > 10 µM | GI50 (SK-MEL-2 melanoma): 6.73 µM and 2.78 µM and > 10 µM | TGI (SK-MEL-2 melanoma): 20.3 µM and 16.2 µM and > 10 µM | TGI (HL-60(TB) leukemia): > 100 µM and 24.8 µM and > 10 µM | GI50 (UO-31 renal): 3.62 µM and 0.45 µM and 3.93 µM | TGI (UO-31 renal): 18.3 µM and 4.57 µM and > 10 µM

COc1ccc(C(=NN=C(N)N)c2ccc(OC)cc2)cc1
GI50 (KM12 colon): 2.31 µM | TGI (KM12 colon): 8.41 µM | GI50 (MDA-MB-435): 1.78 µM | TGI (MDA-MB-435): 4.33 µM | GI50 (SN12C renal): 3.15 µM | TGI (SN12C renal): 15.5 µM | GI50 (SNB-75 CNS): 1.84 µM | TGI (SNB-75 CNS): 11.3 µM | GI50 (SK-MEL-2 melanoma): 2.51 µM | TGI (SK-MEL-2 melanoma): 12.6 µM | GI50 (HL-60(TB) leukemia): 2.53 µM | TGI (HL-60(TB) leukemia): 8.48 µM | GI50 (UO-31 renal): 3.46 µM | TGI (UO-31 renal): 15.6 µM

O=C(c1ccc(C(F)(F)F)c(Cl)c1)N(Cc1ccc(Cl)cc1)c1ccc(-c2cc(C(F)(F)F)[nH]n2)c(O)c1
GI50 (KM12 colon): 0.951 µM | TGI (KM12 colon): 2.19 µM | GI50 (MDA-MB-435): 1.25 µM | TGI (MDA-MB-435): 3.66 µM | GI50 (SN12C renal): 0.886 µM | TGI (SN12C renal): 2.04 µM | GI50 (SNB-75 CNS): 0.989 µM | TGI (SNB-75 CNS): 3.24 µM | GI50 (SK-MEL-2 melanoma): 1.16 µM | TGI (SK-MEL-2 melanoma): 3.13 µM | GI50 (HL-60(TB) leukemia): 1.12 µM | TGI (HL-60(TB) leukemia): 2.69 µM | GI50 (UO-31 renal): 0.717 µM | TGI (UO-31 renal): 1.65 µM

O=C(NCCCl)Nc1cccnc1
TGI (KM12 colon): 41.5 µM | TGI (MDA-MB-435): > 100 µM | TGI (SN12C renal): 64.7 µM | TGI (SNB-75 CNS): 63.1 µM | TGI (SK-MEL-2 melanoma): > 100 µM | TGI (HL-60(TB) leukemia): > 100 µM | TGI (UO-31 renal): 50.3 µM

COc1ccc2c3c1OC1C(OC)(OC)C=C[C@@]4(Br)[C@@H](C2)N(CC2CC2)CC[C@]314 (stereo partly specified)
TGI (KM12 colon): > 100 µM | TGI (MDA-MB-435): > 100 µM | TGI (SN12C renal): > 100 µM | TGI (SNB-75 CNS): > 100 µM | TGI (SK-MEL-2 melanoma): > 100 µM | TGI (HL-60(TB) leukemia): > 100 µM | TGI (UO-31 renal): > 100 µM

COC1=C(C)C(=O)c2c(c(CCCl)c3n2CCC3OC(C)=O)C1=O (stereo unspecified)
GI50 (KM12 colon): 0.642 µM | TGI (KM12 colon): 3.05 µM | GI50 (MDA-MB-435): 0.523 µM | TGI (MDA-MB-435): 1.97 µM | GI50 (SN12C renal): 0.391 µM | TGI (SN12C renal): 15.4 µM | GI50 (SNB-75 CNS): 0.141 µM | TGI (SNB-75 CNS): 0.376 µM | GI50 (SK-MEL-2 melanoma): 0.319 µM | TGI (SK-MEL-2 melanoma): 1 µM | GI50 (HL-60(TB) leukemia): 2.43 µM | TGI (HL-60(TB) leukemia): 33.6 µM | GI50 (UO-31 renal): 0.241 µM | TGI (UO-31 renal): 0.739 µM

COc1ccc(CCN(CC(=O)N(CC(N)=O)C2CCC[C@@H]2OCc2ccccc2)C(=O)CN(C(=O)CN(CCc2ccc(Cl)cc2)C(=O)CN(C(=O)CN(C)Cc2ccccc2F)[C@H](C)C2CCCCC2)[C@H](C)C2CCCCC2)cc1OC (stereo partly specified)
GI50 (KM12 colon): 1.58 µM | TGI (KM12 colon): > 50 µM | GI50 (MDA-MB-435): 1.58 µM | TGI (MDA-MB-435): > 50 µM | GI50 (SN12C renal): 2.13 µM | TGI (SN12C renal): > 50 µM | GI50 (SNB-75 CNS): 1.09 µM | TGI (SNB-75 CNS): > 50 µM | GI50 (SK-MEL-2 melanoma): 0.946 µM | TGI (SK-MEL-2 melanoma): 2.84 µM | GI50 (HL-60(TB) leukemia): 1.21 µM | TGI (HL-60(TB) leukemia): 3.24 µM | GI50 (UO-31 renal): 2.2 µM | TGI (UO-31 renal): > 50 µM

CCCCCCn1c(SC)nc(COC(=O)NC)c1COC(=O)NC
TGI (KM12 colon): 32.6 µM | TGI (MDA-MB-435): 41.9 µM | TGI (SN12C renal): 31.3 µM | TGI (SNB-75 CNS): 27.8 µM | TGI (SK-MEL-2 melanoma): 49.9 µM | TGI (HL-60(TB) leukemia): 56 µM | TGI (UO-31 renal): 31.3 µM

CN(C)CC(=O)Nc1ccc2ncnc(Nc3ccc(Oc4cccc(C(F)(F)F)c4)c(Cl)c3)c2c1
GI50 (KM12 colon): 1.91 µM | TGI (KM12 colon): 4 µM | GI50 (MDA-MB-435): 1.66 µM | TGI (MDA-MB-435): 3.14 µM | GI50 (SN12C renal): 2.85 µM | TGI (SN12C renal): 10.5 µM | GI50 (SNB-75 CNS): 1.33 µM | TGI (SNB-75 CNS): 2.82 µM | GI50 (SK-MEL-2 melanoma): 2.04 µM | TGI (SK-MEL-2 melanoma): 4.37 µM | GI50 (HL-60(TB) leukemia): 2.09 µM | TGI (HL-60(TB) leukemia): 4.94 µM | GI50 (UO-31 renal): 0.951 µM | TGI (UO-31 renal): 2.32 µM

CCOC(=O)C1=C(C)NC(=O)NC1CN1C(=O)c2ccccc2C1=O (stereo unspecified)
GI50 (KM12 colon): > 100 µM | TGI (KM12 colon): > 100 µM | GI50 (MDA-MB-435): > 100 µM | TGI (MDA-MB-435): > 100 µM | GI50 (SN12C renal): > 100 µM | TGI (SN12C renal): > 100 µM | GI50 (SNB-75 CNS): > 100 µM | TGI (SNB-75 CNS): > 100 µM | GI50 (SK-MEL-2 melanoma): > 100 µM | TGI (SK-MEL-2 melanoma): > 100 µM | GI50 (HL-60(TB) leukemia): > 100 µM | TGI (HL-60(TB) leukemia): > 100 µM | GI50 (UO-31 renal): > 100 µM | TGI (UO-31 renal): > 100 µM

CC(=O)CC/C=C(\C)[C@H](O)[C@H](C)C(=O)O[C@H]1C[C@H](C)C=C2C=C[C@@]3(C)O[C@@H](O)CC(=O)[C@]3(C)[C@H]21
GI50 (KM12 colon): 0.308 µM | TGI (KM12 colon): 2.54 µM | GI50 (MDA-MB-435): 0.508 µM | TGI (MDA-MB-435): 2.09 µM | GI50 (SN12C renal): 0.324 µM | TGI (SN12C renal): 2.43 µM | GI50 (SNB-75 CNS): 0.686 µM | TGI (SNB-75 CNS): 2.61 µM | GI50 (SK-MEL-2 melanoma): 0.419 µM | TGI (SK-MEL-2 melanoma): 1.91 µM | GI50 (HL-60(TB) leukemia): 1.42 µM | TGI (HL-60(TB) leukemia): 4.22 µM | GI50 (UO-31 renal): 0.383 µM | TGI (UO-31 renal): 2.9 µM

N#CC1=C(N)NC(=S)NC12Nc1ccccc1S2 (stereo unspecified)
GI50 (KM12 colon): 24.9 µM | TGI (KM12 colon): 75.5 µM | GI50 (MDA-MB-435): 19.2 µM | TGI (MDA-MB-435): 47.6 µM | GI50 (SN12C renal): 20.5 µM | TGI (SN12C renal): 63.6 µM | GI50 (SNB-75 CNS): 30.4 µM | TGI (SNB-75 CNS): > 100 µM | GI50 (SK-MEL-2 melanoma): 44.2 µM | TGI (SK-MEL-2 melanoma): > 100 µM | GI50 (HL-60(TB) leukemia): 33.6 µM | TGI (HL-60(TB) leukemia): 79.2 µM | GI50 (UO-31 renal): 35.8 µM | TGI (UO-31 renal): > 100 µM
